Data as given in patent US11684650B2, “Composition for preventing, alleviating, or treating cachexia and muscle loss” (CHUNG-ANG UNIVERSITY INDUSTRY ACADEMIC COOPERATION …, priority 2018, dated 2023).

Experiments:
Format in all cases: in vivo, C57BL/6 mice
[1] = tested on: mice with tumors induced by MC38 colorectal cancer cells; test: Food intake of MC38 tumor-bearing mice; conditions: oral 14 days, extract 100 mg/kg, Megace 125 mg/kg, mean ± standard deviation
Protocol: (§1) As experimental animals, 4-week-old male C57BL/6 mice (weighed 18 to 20 g) were purchased from Central Lab Animal Inc., acclimated in a laboratory animal facility for 1 week, and then used in the experiment. During the experiment, the animals were allowed to access feed and water ad libitum, and housed at cages at a temperature of 22±2° C. and a relative humidity of 60±5% under a 12-hr light/12-hr dark cycle.
(§2) The mice were divided into a normal group (healthy group), a control group (tumor-induced group), a conventional drug-administered group and a Paeoniae radix extract-administered group, each group consisting of 9 animals. […] During the experiment, the food uptake of each mouse was recorded. In addition, the muscle strength of each mouse was measured with a grip strength test device (Bioseb, USA), and the endurance of each mouse was measured under the condition of maximum exercise time of 600 seconds using a treadmill device (Columbus Instrument, USA).
(§3) While the Paeoniae radix extract was administered orally to the mice for 14 days after tumor induction, the food intake of the mice was recorded. […]

[2] = tested on: mice with tumors induced by Lewis lung carcinoma (LLC) cells; test: Food intake and body weight of LLC tumor-bearing mice; conditions: oral 14 days, extract 100 mg/kg, Megace 125 mg/kg, mean ± standard deviation
Protocol: as §1, §2, §3

[3] = tested on: MC38 colorectal cancer cells; test: Tumor weight, MC38 tumor-bearing mice; conditions: oral 14 days, extract 100 mg/kg, Megace 125 mg/kg, mean ± standard deviation
Protocol: as §2, with “animals. Each animal of the normal group was injected subcutaneously with 100 μl of PBS, and the tumor-induced group (control group), the conventional drug-administered group and the Paeoniae radix extract-administered group were injected subcutaneously with MC38 colorectal cancer cells (1×10^6 cells/100 μl) or Lewis lung carcinoma (LLC) cells (1×10^6 cells/100 μl).” for “animals.”
(§4) After completion of the experiment, the mice were euthanized, blood was collected therefrom, and then the tumor weight and the hind limb muscle weight were measured, and the serum and muscle concentrations of TNF-α, IL-6, IL-1 and MCP-1 were quantified by ELISA assay. […]
(§5) After the Paeoniae radix extract was administered orally to the mice for 14 days after tumor induction, the mice were euthanized and the tumor weight was measured. […]

[4] = tested on: Lewis lung carcinoma (LLC) cells; test: Tumor weight, LLC tumor-bearing mice; conditions: oral 14 days, extract 100 mg/kg, Megace 125 mg/kg, mean ± standard deviation
Protocol: as §2, with “animals. Each animal of the normal group was injected subcutaneously with 100 μl of PBS, and the tumor-induced group (control group), the conventional drug-administered group and the Paeoniae radix extract-administered group were injected subcutaneously with MC38 colorectal cancer cells (1×10^6 cells/100 μl) or Lewis lung carcinoma (LLC) cells (1×10^6 cells/100 μl).” for “animals.”
as §4, §5

IL-6 = test: Serum and muscle inflammatory cytokine ELISA, MC38 tumor-bearing mice; conditions: oral 14 days, extract 100 mg/kg, Megace 125 mg/kg, mean ± standard deviation
Protocol: as §2, with “animals. Each animal of the normal group was injected subcutaneously with 100 μl of PBS, and the tumor-induced group (control group), the conventional drug-administered group and the Paeoniae radix extract-administered group were injected subcutaneously with MC38 colorectal cancer cells (1×10^6 cells/100 μl) or Lewis lung carcinoma (LLC) cells (1×10^6 cells/100 μl).” for “animals.”
as §4
After the Paeoniae radix extract was administered orally to the mice for 14 days after tumor induction, the mice were euthanized and the serum and muscle concentrations of inflammatory cytokines were measured. […]

TNF-α, IL-6, MCP-1 = test: Serum and muscle inflammatory cytokine ELISA, LLC tumor-bearing mice; conditions: oral 14 days, extract 100 mg/kg, Megace 125 mg/kg, mean ± standard deviation
Protocol: The mice were divided into a normal group (healthy group), a control group (tumor-induced group), a conventional drug-administered group and a Paeoniae radix extract-administered group, each group consisting of 9 animals. Each animal of the normal group was injected subcutaneously with 100 μl of PBS, and the tumor-induced group (control group), the conventional drug-administered group and the Paeoniae radix extract-administered group were injected subcutaneously with MC38 colorectal cancer cells (1×10^6 cells/100 μl) or Lewis lung carcinoma (LLC) cells (1×10^6 cells/100 μl). When the tumor volume reached about 1,000 mm^3 after 2 weeks of tumor induction, the cancer cachexia treatment agent Megace (megestrol acetate), which is most frequently used in current clinical practice, was administered orally to the conventional drug-administered group. Dose of Megace was 125 mg/kg (=625 mg [daily human dose]/60 kg [human's average body weight]×12 [human/mouse body surface area dose equivalent factor]) for 14 days. Paeoniae radix extract prepared in Example 1 was administered orally to the Paeoniae radix extract-administered group for 14 days at a dose of 100 mg/kg, which is slightly lower than the dose of Megace. During the experiment, the food uptake of each mouse was recorded. In addition, the muscle strength of each mouse was measured with a grip strength test device (Bioseb, USA), and the endurance of each mouse was measured under the condition of maximum exercise time of 600 seconds using a treadmill device (Columbus Instrument, USA).
After completion of the experiment, the mice were euthanized, blood was collected therefrom, and then the tumor weight and the hind limb muscle weight were measured, and the serum and muscle concentrations of TNF-α, IL-6, IL-1 and MCP-1 were quantified by ELISA assay. In addition, the effect of the Paeoniae radix extract on the reduction of muscle atrophy factor (MAFbx) in the hind limb muscle of each LCC cancer-bearing mouse was measured using Western blot and immunofluorescence known in the art.
After the Paeoniae radix extract was administered orally to the mice for 14 days after tumor induction, the mice were euthanized and the serum and muscle concentrations of inflammatory cytokines were measured. As a result, as shown in Table 4 below and FIGS. 2 and 8, the concentrations of tumor-induced inflammatory cytokines increased in the control group (tumor-induced group) compared to the normal (healthy) group.

[5] = tested on: mice with tumors induced by MC38 colorectal cancer cells; test: Grip strength test, MC38 tumor-bearing mice; conditions: grip strength on day 12 of oral treatment, extract 100 mg/kg, Megace 125 mg/kg, mean ± standard deviation
Protocol: as §2, with “animals. Each animal of the normal group was injected subcutaneously with 100 μl of PBS, and the tumor-induced group (control group), the conventional drug-administered group and the Paeoniae radix extract-administered group were injected subcutaneously with MC38 colorectal cancer cells (1×10^6 cells/100 μl) or Lewis lung carcinoma (LLC) cells (1×10^6 cells/100 μl).” for “animals.”
(§6) On day 12th day of the oral treatment of conventional drug or the Paeoniae radix extract to the tumor-induced mice, the muscle strength and endurance of the mice were measured by a grip strength (g) test and a treadmill running time (sec) test, respectively.

[6] = tested on: mice with tumors induced by Lewis lung carcinoma (LLC) cells; test: Grip strength test, LLC tumor-bearing mice; conditions: grip strength on day 12 of oral treatment, extract 100 mg/kg, Megace 125 mg/kg, mean ± standard deviation
Protocol: as §2, with “animals. Each animal of the normal group was injected subcutaneously with 100 μl of PBS, and the tumor-induced group (control group), the conventional drug-administered group and the Paeoniae radix extract-administered group were injected subcutaneously with MC38 colorectal cancer cells (1×10^6 cells/100 μl) or Lewis lung carcinoma (LLC) cells (1×10^6 cells/100 μl).” for “animals.”
as §6

[7] = tested on: mice with tumors induced by MC38 colorectal cancer cells; test: Treadmill running time test, MC38 tumor-bearing mice; conditions: maximum 600 seconds, day 12 of oral treatment, extract 100 mg/kg, Megace 125 mg/kg, mean ± standard deviation
Protocol: as §2, with “animals. Each animal of the normal group was injected subcutaneously with 100 μl of PBS, and the tumor-induced group (control group), the conventional drug-administered group and the Paeoniae radix extract-administered group were injected subcutaneously with MC38 colorectal cancer cells (1×10^6 cells/100 μl) or Lewis lung carcinoma (LLC) cells (1×10^6 cells/100 μl).” for “animals.”
as §6

[8] = tested on: mice with tumors induced by Lewis lung carcinoma (LLC) cells; test: Treadmill running time test, LLC tumor-bearing mice; conditions: maximum 600 seconds, day 12 of oral treatment, extract 100 mg/kg, Megace 125 mg/kg, mean ± standard deviation
Protocol: as §2, with “animals. Each animal of the normal group was injected subcutaneously with 100 μl of PBS, and the tumor-induced group (control group), the conventional drug-administered group and the Paeoniae radix extract-administered group were injected subcutaneously with MC38 colorectal cancer cells (1×10^6 cells/100 μl) or Lewis lung carcinoma (LLC) cells (1×10^6 cells/100 μl).” for “animals.”
as §6

**Q.** `CC(=O)O[C@]1(C(C)=O)CC[C@H]2[C@@H]3C=C(C)C4=CC(=O)CC[C@]4(C)[C@H]3CC[C@@]21C` [Conventional drug, megestrol acetate] was tested. Which Food intake [1] did it give?
**A.** Its Food intake is 2.607 ± 0.357 g.

**Q.** And the Food intake [2]?
**A.** The Food intake was 2.891 ± 0.417 g.

**Q.** What about the Tumor weight [3] of the same compound?
**A.** Its Tumor weight is 11.747 ± 3.073 g.

**Q.** And the Tumor weight [4]?
**A.** The Tumor weight was 7.797 ± 2.385 g.

**Q.** What about the “Cytokine concentration, Muscle IL-6” value (IL-6) of the same compound?
**A.** Its value is 156.167 ± 29.486 pg/mL.

**Q.** What about the “Cytokine concentration, Serum IL-6” value (IL-6) of the same compound?
**A.** Its value is 49.222 ± 22.762 pg/mL.

**Q.** And the “Cytokine concentration, Muscle TNF-α” value (TNF-α, IL-6, MCP-1)?
**A.** Its value is 21.910 ± 5.414 pg/mL.

**Q.** What about the “Cytokine concentration, Serum IL-6” value (TNF-α, IL-6, MCP-1) of the same compound?
**A.** The value was 15.616 ± 8.902 pg/mL.

**Q.** And the “Cytokine concentration, Serum MCP-1” value (TNF-α, IL-6, MCP-1)?
**A.** Its value is 431.670 ± 191.640 pg/mL.

**Q.** What about the “Cytokine concentration, Serum TNF-α” value (TNF-α, IL-6, MCP-1) of the same compound?
**A.** The value was 3.302 ± 0.422 pg/mL.

**Q.** What about the Muscle strength [5] of the same compound?
**A.** Its Muscle strength is 172.065 ± 28.210 g.

**Q.** What about the Muscle strength [6] of the same compound?
**A.** The Muscle strength was 154.883 ± 17.238 g.

**Q.** What about the Endurance [7] of the same compound?
**A.** The Endurance was 177.400 ± 60.844 s.

**Q.** And the Endurance [8]?
**A.** Its Endurance is 338.333 ± 157.322 s.
